Experimental data from patent publication US10743540B2, “3-amino-1,2,4-triazine derivatives and their use for controlling undesired plant growth” (BAYER CROPSCIENCE AKTIENGESELLSCHAFT, priority 2016, dated 2020).

Assays:
Format in all cases: in vivo
[1] = system: ABUTH: Abutilon theophrasti; assay: Pre-emergence herbicidal effect; conditions: application rate 320 g/ha, scored visually after 3 weeks, 100% = plants have died, 0% = like control plants
From the text: (§1) 1. Pre-Emergence Herbicidal Effect and Crop Plant Compatibility Seeds of monocotyledonous and dicotyledonous weed plants and crop plants are laid out in sandy loam soil in wood-fiber pots and covered with soil. The compounds of the invention, formulated in the form of wettable powders (WP) or as emulsion concentrates (EC), are then applied to the surface of the covering soil as aqueous suspension or emulsion at a water application rate equating to 600 to 800 L/ha with addition of 0.2% wetting agent. After the treatment, the pots are placed in a greenhouse and kept under good growth conditions for the trial plants. The damage to the test plants is scored visually after a test period of 3 weeks by comparison with untreated controls (herbicidal activity in percent (%): 100% activity=the plants have died, 0% activity=like control plants). [table]

[2] = system: MATIN: Matricaria inodora; assay: Pre-emergence herbicidal effect; conditions: application rate 320 g/ha, scored visually after 3 weeks, 100% = plants have died, 0% = like control plants
From the text: as §1

[3] = system: ECHCG: Echinochloa crus-galli; assay: Pre-emergence herbicidal effect; conditions: application rate 320 g/ha, scored visually after 3 weeks, 100% = plants have died, 0% = like control plants
From the text: as §1

[4] = system: POLCO: Polygonum convolvulus; assay: Pre-emergence herbicidal effect; conditions: application rate 320 g/ha, scored visually after 3 weeks, 100% = plants have died, 0% = like control plants
From the text: as §1

SETVI: Setaria viridis = assay: Pre-emergence herbicidal effect; conditions: application rate 320 g/ha, scored visually after 3 weeks, 100% = plants have died, 0% = like control plants
From the text: as §1

VERPE: Veronica persica [5] = assay: Pre-emergence herbicidal effect; conditions: application rate 320 g/ha, scored visually after 3 weeks, 100% = plants have died, 0% = like control plants
From the text: as §1

[6] = system: LOLMU: Lolium multiflorum; assay: Pre-emergence herbicidal effect; conditions: application rate 320 g/ha, scored visually after 3 weeks, 100% = plants have died, 0% = like control plants
From the text: as §1

[7] = system: ALOMY: Alopecurus myosuroides; assay: Pre-emergence herbicidal effect; conditions: application rate 320 g/ha, scored visually after 3 weeks, 100% = plants have died, 0% = like control plants
From the text: as §1

STEME: Stellaria media [8] = assay: Pre-emergence herbicidal effect; conditions: application rate 320 g/ha, scored visually after 3 weeks, 100% = plants have died, 0% = like control plants
From the text: as §1

[9] = system: ECHCG: Echinochloa crus-galli; assay: Post-emergence herbicidal effect; conditions: application rate 320 g/ha, treated at one-leaf stage, assessed visually after about 3 weeks, 100% = plants have died
Method: (§2) [table] 2. Post-Emergence Herbicidal Effect and Crop Plant Compatibility Seeds of monocotyledonous and dicotyledonous weed and crop plants are laid out in sandy loam soil in wood-fiber pots, covered with soil and cultivated in a greenhouse under good growth conditions. 2 to 3 weeks after sowing, the test plants are treated at the one-leaf stage. The compounds of the invention, formulated in the form of wettable powders (WP) or as emulsion concentrates (EC), are then sprayed onto the green parts of the plants as aqueous suspension or emulsion at a water application rate equating to 600 to 800 L/ha with addition of 0.2% wetting agent. After the test plants have been left to stand in the greenhouse under optimal growth conditions for about 3 weeks, the action of the preparations is assessed visually in comparison to untreated controls (herbicidal action in percent (%): 100% activity=the plants have died, 0% activity=like control plants).

VIOTR: Viola tricolor = assay: Post-emergence herbicidal effect; conditions: application rate 320 g/ha, treated at one-leaf stage, assessed visually after about 3 weeks, 100% = plants have died
Method: as §2

VERPE: Veronica persica [10] = assay: Post-emergence herbicidal effect; conditions: application rate 320 g/ha, treated at one-leaf stage, assessed visually after about 3 weeks, 100% = plants have died
Method: as §2

[11] = system: ALOMY: Alopecurus myosuroides; assay: Post-emergence herbicidal effect; conditions: application rate 320 g/ha, treated at one-leaf stage, assessed visually after about 3 weeks, 100% = plants have died
Method: as §2

[12] = system: AMARE: Amaranthus retroflexus; assay: Post-emergence herbicidal effect; conditions: application rate 320 g/ha, treated at one-leaf stage, assessed visually after about 3 weeks, 100% = plants have died
Method: as §2

STEME: Stellaria media [13] = assay: Post-emergence herbicidal effect; conditions: application rate 320 g/ha, treated at one-leaf stage, assessed visually after about 3 weeks, 100% = plants have died
Method: as §2

Compound | Herbicidal activity with respect to [%] ABUTH [1] | Herbicidal activity with respect to [%] MATIN [2] | Herbicidal activity with respect to [%] ECHCG [3] | Herbicidal activity with respect to [%] POLCO [4] | Herbicidal activity with respect to [%] SETVI (SETVI: Setaria viridis) | Herbicidal activity with respect to [%] VERPE (VERPE: Veronica persica [5]) | Herbicidal activity with respect to [%] LOLMU [6] | Herbicidal activity with respect to [%] ALOMY [7] | Herbicidal activity with respect to [%] STEME (STEME: Stellaria media [8]) | Herbicidal activity with respect to [%] ECHCG [9] | Herbicidal activity with respect to [%] VIOTR (VIOTR: Viola tricolor) | Herbicidal activity with respect to [%] VERPE (VERPE: Veronica persica [10]) | Herbicidal activity with respect to [%] ALOMY [11] | Herbicidal activity with respect to [%] AMARE [12] | Herbicidal activity with respect to [%] STEME (STEME: Stellaria media [13])
Cc1ccc2c(c1)[C@H](Nc1nnc([S+](C)[O-])c(N)n1)CC2 (stereo partly shown) [Example 1.71] | 100% | 100% | 100% | 100% | 100% | 100% | 100% | 100% | 100% | 100% | 90% | 80% | 90% | 80% | 100%
CCOC(=O)c1nnc(N[C@H]2c3cc(C)ccc3C[C@@H]2C)nc1N [Example 1.21] | – | 100% | 100% | 100% | 100% | 80% | – | 90% | – | 80% | 80% | 100% | 80% | 90% | 100%
Nc1nc(NC2CCOc3ccccc32)nnc1C(F)(F)F (stereo not shown) [Example 1.47, N^3-(3,4-Dihydro-2H-chromen-4-yl)-6-(trifluoromethyl)-1,2,4-triazine-3,5-diamine] | – | 100% | 100% | 100% | 100% | 100% | – | 80% | 100% | 100% | 100% | 100% | 100% | 100% | 100%
Cc1ccc2c(c1)[C@H](Nc1nnc([S+](C)[O-])c(N)n1)CCC2 (stereo partly shown) [Example 1.69] | – | 100% | 100% | 100% | 100% | 100% | 90% | 90% | 100% | 80% | 80% | 80% | 90% | 90% | 100%
Cc1ccc2c(c1)[C@H](Nc1nnc(S(C)(=O)=O)c(N)n1)CCC2 [Example 1.68] | 100% | 100% | 100% | 100% | 100% | 100% | 100% | 100% | 100% | 80% | 90% | 80% | 100% | – | 100%
Cc1ccc2c(c1)[C@H](Nc1nnc(S(C)(=O)=O)c(N)n1)[C@@H](C)C2 [Example 1.45] | 90% | 100% | 100% | 100% | 100% | 100% | 100% | 100% | 100% | 100% | 90% | 90% | – | 80% | 90%
Cc1ccc2c(c1)[C@H](Nc1nnc(C(N)=O)c(N)n1)CC2 [Example 1.78] | 100% | 100% | 100% | 90% | 100% | – | – | 100% | – | – | 80% | – | 100% | 80% | 100%
Nc1nc(N[C@@H]2CCCc3ccccc32)nnc1C(F)(F)F [Example 1.22] | 90% | 100% | 100% | 100% | 100% | 100% | – | 100% | 100% | 100% | 100% | 100% | 100% | 100% | 100%
CC(=O)c1nnc(N[C@H]2c3cc(C)ccc3C[C@@H]2C)nc1N [Example 1.26] | 100% | 100% | 100% | 100% | 100% | 100% | – | 100% | 100% | 100% | 100% | 100% | – | 90% | 100%
Nc1nc(NC2CCOc3ccc(F)cc32)nnc1C(F)(F)F (racemic) [Example 1.49] | – | 100% | 100% | 100% | 100% | 100% | 100% | 100% | 100% | 80% | 90% | 100% | 80% | 80% | 90%
